From patent US20160046618A1, “Cyclopropyl Fused Thiazin-2-Amine Compounds as Beta-Secretase Inhibitors and Methods of Use” (AMGEN INC., priority 2014, published 2016)
Where two headings read alike, the source gives them in different places.

Columns and labels:
[1] = target: human recombinant BACE2 (Homo sapiens (Human), UniProt Q9Y5Z0); assay: In vitro enzymatic BACE2 FRET assay; type: biochemical; settings: read-out: IC50 IP (μM) BACE2 enzyme
Outline: (§1)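 Ni-NTA-purified recombinant enzyme incubated 1 h with 50 nM FRET peptide substrate (fluorophore and quencher flanking the BACE cleavage site). Reaction stopped with Tris buffer raising pH to neutrality; cleavage-released fluorescence read at ex 488/em 590 nm.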

[2] = system: Aβ40 in conditioned medium of cells stably expressing Amyloid Precursor Protein (APP); assay: In vitro BACE-1 cell-based assay (Aβ40 sandwich ELISA); settings: read-out: IC50 IP (μM) BACE1 cell
Outline: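 APP-stable cells, pre-cultured 24 h at 37° C in DMEM/10% FBS, were treated 24 h with compound in a 10-point series starting at 100 μM or 10 μM (0.1% DMSO final). Secreted Aβ40 in conditioned medium was measured by pAb40/biotin-6E10 sandwich ELISA with Europium time-resolved fluorescence; IC50 from percent inhibition versus concentration.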

[3] = target: human recombinant BACE1 (Homo sapiens (Human), UniProt P56817); assay: In vitro enzymatic BACE1 FRET assay; type: biochemical; settings: read-out: IC50 IP (μM) BACE1 enzyme
Outline: as §1

[4] = target: Recombinant Cat D (Homo sapiens (Human), UniProt P07339); assay: In vitro enzymatic Cathepsin D (Cat D) FRET assay; type: biochemical
Outline: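 Cleavage of a 20 nM FRET peptide by CHO-derived Cat D over 1 h at pH 3.5 (citrate buffer with CHAPS, 10% DMSO final). Endpoint fluorescence is read after Tris quench.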

[5] = Cathepsin D FRET enzyme assay, read-out: IC50 IP (μM) CatD

Chain of human recombinant BACE1 (P56817 46-501): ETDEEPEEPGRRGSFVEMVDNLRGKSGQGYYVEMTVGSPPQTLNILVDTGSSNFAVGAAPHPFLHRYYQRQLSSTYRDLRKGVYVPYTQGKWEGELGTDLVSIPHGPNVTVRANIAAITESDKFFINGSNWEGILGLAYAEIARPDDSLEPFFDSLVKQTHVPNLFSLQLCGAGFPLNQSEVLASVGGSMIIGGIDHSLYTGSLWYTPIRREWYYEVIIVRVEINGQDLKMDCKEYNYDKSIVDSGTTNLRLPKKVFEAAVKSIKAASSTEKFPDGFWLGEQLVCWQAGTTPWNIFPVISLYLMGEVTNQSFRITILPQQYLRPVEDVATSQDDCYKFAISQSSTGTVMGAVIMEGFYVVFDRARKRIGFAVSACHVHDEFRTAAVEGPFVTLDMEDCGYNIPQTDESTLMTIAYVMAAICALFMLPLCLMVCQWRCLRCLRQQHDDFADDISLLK
Chain of human recombinant BACE2 (Q9Y5Z0 63-518): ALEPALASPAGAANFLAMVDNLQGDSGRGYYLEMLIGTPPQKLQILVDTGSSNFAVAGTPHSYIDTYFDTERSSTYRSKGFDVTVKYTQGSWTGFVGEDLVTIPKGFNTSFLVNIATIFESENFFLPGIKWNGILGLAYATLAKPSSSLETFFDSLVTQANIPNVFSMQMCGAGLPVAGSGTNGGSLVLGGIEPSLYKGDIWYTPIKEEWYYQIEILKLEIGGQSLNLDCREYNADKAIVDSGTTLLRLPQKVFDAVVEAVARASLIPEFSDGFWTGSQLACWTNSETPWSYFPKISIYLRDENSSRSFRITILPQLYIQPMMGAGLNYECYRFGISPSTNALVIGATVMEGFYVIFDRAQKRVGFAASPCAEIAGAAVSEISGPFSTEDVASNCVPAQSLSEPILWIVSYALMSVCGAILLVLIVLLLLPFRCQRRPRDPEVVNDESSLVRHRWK
Chain of Recombinant Cat D (P07339 65-412): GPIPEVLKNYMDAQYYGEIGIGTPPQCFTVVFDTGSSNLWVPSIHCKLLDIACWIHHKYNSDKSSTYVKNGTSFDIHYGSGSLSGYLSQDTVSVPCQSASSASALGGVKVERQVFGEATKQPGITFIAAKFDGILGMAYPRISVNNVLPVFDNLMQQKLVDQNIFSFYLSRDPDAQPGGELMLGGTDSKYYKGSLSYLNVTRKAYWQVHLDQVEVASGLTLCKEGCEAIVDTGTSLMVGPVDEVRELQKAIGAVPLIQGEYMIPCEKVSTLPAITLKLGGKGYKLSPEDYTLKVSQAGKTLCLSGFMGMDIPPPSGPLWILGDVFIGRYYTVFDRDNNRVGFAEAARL

Row | SMILES | IC50 [1] | IC50 [2] | IC50 [3] | IC50 ([4]; read-out: IC50 IP (μM) CatD) | IC50 ([1]; BACE2 FRET enzyme assay) | IC50 ([2]; BACE1 cell-based assay) | IC50 ([3]; BACE1 FRET enzyme assay) | IC50 [4, 5] | IC50 ([4]; first procedure (FRET), read-out: Cat D IC50)
1 | C#CCOc1cnc(C(=O)Nc2cc(F)c(F)c([C@@]3(C)N=C(N)S[C@@]4(CF)C[C@H]43)c2)c(Cl)c1 [Example 691, N-(3-((1S,5S,6S)-3-amino-1-(fluoromethyl)-5-methyl-2-thia-4-azabicyclo[4.1.0]hept-3-en-5-yl)-4,5-difluorophenyl)-3-chloro-5-(2-propyn-1-yloxy)-2-pyridinecarboxamide] | 0.0231 µM | 0.00563 µM | 0.000673 µM | 728 µM | – | – | – | – | –
2 | COC[C@]12C[C@H]1[C@@](C)(c1cc(NC(=O)c3cnc(OCC4CCC4)cn3)cc(F)c1F)N=C(N)S2 [Example 1020, N-(3-((1S,5S,6S)-3-amino-1-(methoxymethyl)-5-methyl-2-thia-4-azabicyclo[4.1.0]hept-3-en-5-yl)-4,5-difluorophenyl)-5-(cyclobutylmethoxy)pyrazine-2-carboxamide] | 0.0998 µM | 0.0248 µM | 0.00118 µM | 783 µM | – | – | – | – | –
3 | CN(C)C(=O)/C=C/[C@]12C[C@H]1[C@@](CF)(c1cc(Nc3ncnc4cc(OCc5ncco5)cnc34)ccc1F)N=C(N)S2 [Example 775, (2E)-3-((1R,5S,6S)-3-amino-5-(fluoromethyl)-5-(2-fluoro-5-((7-(1,3-oxazol-2-ylmethoxy)pyrido[3,2-d]pyrimidin-4-yl)amino)phenyl)-2-thia-4-azabicyclo[4.1.0]hept-3-en-1-yl)-N,N-dimethyl-2-propenamide] | 0.0602 µM | 0.00323 µM | 0.00112 µM | 22.8 µM | – | – | – | – | –
4 | C#CCOc1cnc(C(=O)Nc2cc(F)c(F)c([C@@]3(C)N=C(N)S[C@@]4(CF)C[C@H]43)c2)c(C)c1 [Example 684, N-(3-((1S,5S,6S)-3-amino-1-(fluoromethyl)-5-methyl-2-thia-4-azabicyclo[4.1.0]hept-3-en-5-yl)-4,5-difluorophenyl)-3-methyl-5-(2-propyn-1-yloxy)-2-pyridinecarboxamide] | 0.0332 µM | 0.00684 µM | 0.00146 µM | 1040 µM | – | – | – | – | –
5 | Cc1cc(C#N)cnc1C(=O)Nc1cc(F)c(F)c([C@@]2(C)N=C(N)S[C@@]3(C(F)F)C[C@@H]23)c1 [Example 94, N-(3-((1S,5S,6S)-3-amino-1-(difluoromethyl)-5-methyl-2-thia-4-azabicyclo[4.1.0]hept-3-en-5-yl)-4,5-difluorophenyl)-5-cyano-3-methylpicolinamide] | – | – | – | – | < 0.00203 µM | 0.00304 µM | 0.00053 µM | 559 µM | –
6 | NC1=N[C@](CF)(c2cc(NC(=O)c3ccc(Cl)cn3)ccc2F)[C@@H]2C[C@]2(CO)S1 [Example 37, N-(3-((1S,5S,6S)-3-amino-5-(fluoromethyl)-1-(hydroxymethyl)-2-thia-4-azabicyclo[4.1.0]hept-3-en-5-yl)-4-fluorophenyl)-5-chloropicolinamide] | – | – | – | – | 0.00161 µM | 0.0014 µM | 0.00332 µM | > 400 µM | –
7 | Cc1cc(C#N)cnc1C(=O)Nc1ccc(F)c([C@@]2(CF)N=C(N)S[C@H]3C[C@H]32)c1 [Example 3, N-(3-((1S,5S,6S)-3-amino-5-(fluoromethyl)-2-thia-4-azabicyclo[4.1.0]hept-3-en-5-yl)-4-fluorophenyl)-5-cyano-3-methylpicolinamide] | – | – | – | – | 0.0108 µM | 0.00522 µM | 0.00838 µM | 437 µM | –
8 | C#CCOc1cnc2c(Nc3ccc(F)c([C@@]4(C)N=C(N)S[C@@]5([C@H](O)C(F)(F)F)C[C@H]54)c3)nccc2n1 [Example 671, (1R)-1-((1S,5S,6S)-3-amino-5-(2-fluoro-5-((2-(2-propyn-1-yloxy)pyrido[3,4-b]pyrazin-5-yl)amino)phenyl)-5-methyl-2-thia-4-azabicyclo[4.1.0]hept-3-en-1-yl)-2,2,2,-trifluoroethanol] | 0.0236 µM | 0.00177 µM | 0.000943 µM | 1040 µM | – | – | – | – | –
9 | C[C@]1(c2cc(Nc3nccc4nc(OCCCF)cnc34)cc(F)c2F)N=C(N)S[C@@]2(C(F)F)C[C@@H]12 [Example 871, N-(3-((1S,5S,6S)-3-amino-1-(difluoromethyl)-5-methyl-2-thia-4-azabicyclo[4.1.0]hept-3-en-5-yl)-4,5-difluorophenyl)-2-(3-fluoropropoxy)pyrido[3,4-b]pyrazin-5-amine] | 0.517 µM | 1.17 µM | 0.0183 µM | 352 µM | – | – | – | – | –
10 | C[C@]1(c2cc(NC(=O)c3cnc(OCc4ncco4)cn3)ccc2F)N=C(N)S[C@@]2(C(=O)NC3CC3)C[C@H]21 [Example 799, (1S,5S,6S)-3-amino-N-cyclopropyl-5-(2-fluoro-5-(((5-(1,3-oxazol-2-ylmethoxy)-2-pyrazinyl)carbonyl)amino)phenyl)-5-methyl-2-thia-4-azabicyclo[4.1.0]hept-3-ene-1-carboxamide] | 0.015 µM | 0.00075 µM | 0.000382 µM | 349 µM | – | – | – | – | –
11 | C#CCOc1cnc2c(Nc3cnc(F)c([C@@]4(C)N=C(N)S[C@@]5([C@@H](O)C(F)(F)F)C[C@H]54)c3)ncnc2c1 [Example 666, (1S)-1-((1S,5S,6S)-3-amino-5-(2-fluoro-5-((7-(2-propyn-1-yloxy)pyrido[3,2-d]pyrimidin-4-yl)ammo)-3-pyridinyl)-5-methyl-2-thia-4-azabicyclo[4.1.0]hept-3-en-1-yl)-2,2,2-trifluoroethanol] | 0.177 µM | 0.00772 µM | 0.00201 µM | 1690 µM | – | – | – | – | –
12 | COC[C@]12C[C@H]1[C@@](CF)(c1cc(NC(=O)c3ccc(Cl)cn3)cc(F)c1F)N=C(N)S2 [Example 43, N-(3-((1S,5S,6S)-3-amino-5-(fluoromethyl)-1-(methoxymethyl)-2-thia-4-azabicyclo[4.1.0]hept-3-en-5-yl)-4,5-difluorophenyl)-5-chloro-2-pyridinecarboxamide] | – | – | – | – | 0.00163 µM | 0.00995 µM | 0.00235 µM | 755 µM | > 400 µM

Continued by falling IC50 [1], values first:

Row | IC50 [1] | IC50 [2] | IC50 [3] | IC50 ([4]; read-out: IC50 IP (μM) CatD) | IC50 ([1]; BACE2 FRET enzyme assay) | IC50 ([2]; BACE1 cell-based assay) | IC50 ([3]; BACE1 FRET enzyme assay) | IC50 [4, 5] | IC50 ([4]; first procedure (FRET), read-out: Cat D IC50) | SMILES
13 | 0.282 µM | 0.0179 µM | 0.00107 µM | 2690 µM | – | – | – | – | – | C#C[C@H](C)Oc1cnc2c(Nc3ccc(F)c([C@@]4(CF)N=C(N)S[C@@]5(CF)C[C@H]54)c3)nccc2n1 [Example 879, N-(3-((1S,5S,6S)-3-amino-1,5-bis(fluoromethyl)-2-thia-4-azabicyclo[4.1.0]hept-3-en-5-yl)-4-fluorophenyl)-2-(((1S)-1-methyl-2-propyn-1-yl)oxy)pyrido[3,4-b]pyrazin-5-amine]
14 | 0.224 µM | 0.00826 µM | 0.00115 µM | 569 µM | – | – | – | – | – | CNC(=O)[C@]12C[C@H]1[C@@](C)(c1cc(NC(=O)c3ccc(OCC(F)(F)F)cn3)cc(F)c1F)N=C(N)S2 [Example 700, (1S,5S,6S)-3-amino-5-(2,3-difluoro-5-(((5-(2,2,2-trifluoroethoxy)-2-pyridinyl)carbonyl)amino)phenyl)-N,5-dimethyl-2-thia-4-azabicyclo[4.1.0]hept-3-ene-1-carboxamide]
15 | 0.069 µM | 0.02 µM | 0.011 µM | 1320 µM | – | – | – | – | – | CC#CCCOc1cnc(C(=O)Nc2cc(F)c(F)c([C@@]3(C)N=C(N)S[C@@]4(COC)C[C@H]43)c2)cn1 [Example 1059, N-(3-((1S,5S,6S)-3-amino-1-(methoxymethyl)-5-methyl-2-thia-4-azabicyclo[4.1.0]hept-3-en-5-yl)-4,5-difluorophenyl)-5-(3-pentyn-1-yloxy)-2-pyrazinecarboxamide]
16 | 0.0383 µM | 0.00134 µM | 0.00144 µM | 1240 µM | – | – | – | – | – | [2H]C([2H])([2H])OC[C@]12C[C@H]1[C@@](C)(c1cc(Nc3nccc4nc(OC([2H])([2H])C#C)cnc34)cnc1F)N=C(N)S2 [Example 854, N-(5-((1S,5S,6S)-3-amino-5-methyl-1-(((~2~H_3_)methyloxy)methyl)-2-thia-4-azabicyclo[4.1.0]hept-3-en-5-yl)-6-fluoro-3-pyridinyl)-2-((1,1-~2~H_2_)-2-propyn-1-yloxy)pyrido[3,4-b]pyrazin-5-amine]
17 | 0.0293 µM | 0.0136 µM | 0.0107 µM | 705 µM | – | – | – | – | – | C[C@]1(c2cc(Nc3ncnc4cc(C#N)cnc34)cnc2F)N=C(N)S[C@@]2(C(F)F)C[C@@H]12 [Example 658, 4-((5-((1S,5S,6S)-3-amino-1-(difluoromethyl)-5-methyl-2-thia-4-azabicyclo[4.1.0]hept-3-en-5-yl)-6-fluoro-3-pyridinyl)amino)pyrido[3,2-d]pyrimidine-7-carbonitrile]
18 | 0.0132 µM | 0.0037 µM | 0.0016 µM | 336 µM | – | – | – | – | – | C#CCOc1cnc(C(=O)Nc2cnc(F)c([C@@]3(C)N=C(N)S[C@@]4(CF)C[C@H]43)c2)c(C)n1 [Example 603, N-(5-((1S,5S,6S)-3-amino-1-(fluoromethyl)-5-methyl-2-thia-4-azabicyclo[4.1.0]hept-3-en-5-yl)-6-fluoro-3-pyridinyl)-3-methyl-5-(2-propyn-1-yloxy)-2-pyrazinecarboxamide]
